From US4478746A, “Glycosylated insulin derivatives” (priority 1984, dated 1984)

What was measured:
blood sugar level = assay: Blood sugar depression (BSD) test; type: in vivo; conditions: rats fasted twenty hours, 1 mg/kg intraperitoneal, 20 minutes after injection; control (baseline) 64.62 ± 0.61
Description: The bioactivity of the glycosated insulins described herein was determined by a blood sugar depression test and compared to commercial insulin preparations and controls. In this test, replicates of standard laboratory rats were fasted for twenty hours. After measuring baseline blood sugar levels, a 1 mg/kg dose of either free or glycosylated insulin was injected via an intraperitoneal route. The blood sugar level in each rat was measured colormetrically 20 minutes after the injection.

[1] = Aggregation test on polyurethane (Biomer), microscopically observed; type: physicochemical; conditions: 0.1 mg/ml insulin solution deposited on polyurethane (Biomer)
Description: (§1) Bulk aggregation studies with free insulin compared with glycosylated insulins were carried out by two methods. In a bulk aggregation study, various aqueous insulin and glycosylated insulin solutions containing 0.1 mg/ml of insulin were stirred at 1555 rpm until aggregation was visually observed or up to two weeks. In a second test, solutions containing the same insulin concentration were deposited on polyurethane (Biomer) and microscopically observed for aggregation.

[2] = Bulk aggregation study (stirred aqueous solutions, aggregation visually observed); type: physicochemical; conditions: aqueous solution 0.1 mg/ml insulin, stirred at 1555 rpm until aggregation visually observed or up to two weeks
Description: as §1

Row | Substance | Blood Sugar Concentration after 20 min. IP. injection (± S.E.M.) (blood sugar level) [mg/dL] | Time required for aggregation, Polyurethane [1] | Time required for aggregation, Bulk [2]
1 | p-(α-D-mannopyranosyloxy)-phenyl-N-glutaramyl insulin | 40.60 ± 0.80 | – | –
2 | p-(α-D-glucopyranosyloxy)-phenyl-thiocarbamoyl Insulin | 44.67 ± 2.21 | 8 days | 2 weeks
3 | glucosamidoglutaryl insulin | 45.92 ± 3.30 | – | –
4 | SIGMA INS (21F-0375): commercial insulin preparation (Sigma) used as comparison | 32.66 ± 1.10 | – | –
5 | p-α-D-glucopyranosyloxy)-phenyl-N-glutaramyl insulin | 40.40 ± 2.53 | – | –
6 | p-(α-D-mannopyranosyloxy)-phenyl-N-succinamyl insulin | 44.80 ± 2.37 | 2 weeks | 2 weeks
7 | insulin [Free Insulin, reference compound] | – | 1 to 2 days | 2 to 3 days
8 | p-(α-D-glucopyranosyloxy)-phenyl-N-succinamyl insulin | 40.87 ± 1.32 | 2 weeks | 2 weeks
9 | Glucosamidosuccinyl insulin | 37.80 ± 1.13 | – | –
